ChEMBL document CHEMBL4002569, “Improved anticancer and antiparasitic activity of new lawsone Mannich bases” (Eur J Med Chem, 2017)
One block for each molecule: values may come before it. Calls of active or inactive are those of the source. The calls are words filed in the database; no cut-off is given here.

What was measured:
MDA-MB-231 [1] = assay: Antiproliferative activity against human MDA-MB-231 cells at >10 to 25 uM after 96 hrs by MTT assay; format: functional, cell-based
BXPC-3 [2] = assay: Antiproliferative activity against human BxPC3 cells at >10 to 25 uM after 96 hrs by MTT assay; format: functional, cell-based
PC-3 [3] = assay: Antiproliferative activity against human PC3 cells at >10 to 25 uM after 96 hrs by MTT assay; format: functional, cell-based
MDA-MB-231 [4] = assay: Antiproliferative activity against human MDA-MB-231 cells at <10 uM after 96 hrs by MTT assay; format: functional, cell-based
BXPC-3 [5] = assay: Antiproliferative activity against human BxPC3 cells at <10 uM after 96 hrs by MTT assay; format: functional, cell-based
PC-3 [6] = assay: Antiproliferative activity against human PC3 cells at <10 uM after 96 hrs by MTT assay; format: functional, cell-based
MDA-MB-231 [7] = assay: Antiproliferative activity against human MDA-MB-231 cells at <25 uM after 96 hrs by MTT assay; format: functional, cell-based
BXPC-3 [8] = assay: Antiproliferative activity against human BxPC3 cells at <25 uM after 96 hrs by MTT assay; format: functional, cell-based
PC-3 [9] = assay: Antiproliferative activity against human PC3 cells at <25 uM after 96 hrs by MTT assay; format: functional, cell-based
518A2 [10] = assay: Antiproliferative activity against human 518A2 cells after 72 hrs by MTT assay; format: functional, cell-based; settings: 518A2, 72 h
HCT-116 = assay: Antiproliferative activity against human HCT116 cells after 72 hrs by MTT assay; format: functional, cell-based; settings: HCT-116, 72 h
KB-V1 = assay: Antiproliferative activity against vinblastine-resistant human KBV1 cells after 72 hrs by MTT assay; format: functional, cell-based; settings: KB-V1, 72 h
PANC-1 = assay: Antiproliferative activity against human PANC1 cells after 72 hrs by MTT assay; format: functional, cell-based; settings: PANC-1, 72 h
MDA-MB-231 [11] = assay: Antiproliferative activity against human MDA-MB-231 cells at 1 to 50 uM after 96 hrs by MTT assay; format: functional, cell-based
BXPC-3 [12] = assay: Antiproliferative activity against human BxPC3 cells at 1 to 50 uM after 96 hrs by MTT assay; format: functional, cell-based
PC-3 [13] = assay: Antiproliferative activity against human PC3 cells at 1 to 50 uM after 96 hrs by MTT assay; format: functional, cell-based
518A2 [14] = assay: Induction of reactive oxygen species generation in human 518A2 cells at 0.1 uM after 24 hrs by NBT assay relative to control; format: functional
518A2 [15] = assay: Induction of reactive oxygen species generation in human 518A2 cells at 0.5 uM after 24 hrs by NBT assay relative to control; format: functional
[16] = tested on: Trypanosoma brucei brucei; assay: Antitrypanosomal activity against bloodstream trypomastigote form of Trypanosoma brucei brucei 65.3 […] after 72 hrs by Alamar Blue assay; format: functional, cell-based; settings: Trypanosoma brucei, 65.3, 72 h
[17] = tested on: Trypanosoma brucei brucei; assay: Antitrypanosomal activity against bloodstream trypomastigote form of Trypanosoma brucei brucei 65.3 assessed as deformation of microtubule cytoskeleton at 1 uM after 0.5 to 24 hrs by DAPI staining-based fluorescence microscopic method; format: functional
[18] = tested on: Trypanosoma brucei brucei; assay: Antitrypanosomal activity against bloodstream trypomastigote form of Trypanosoma brucei brucei 65.3 assessed as decrease in parasite motility at 1 uM after 0.5 to 24 hrs by DAPI staining-based fluorescence microscopic method relative to control; format: functional
HeLa [19] = assay: Cytotoxicity against human HeLa cells assessed as effect on cytoskeleton at 10 uM after 1 to 9 hrs by DAPI staining-based fluorescence microscopic method; format: cell-based
HeLa [20] = assay: Cytotoxicity against human HeLa cells assessed as effect on cell viability at 10 uM after 1 to 9 hrs by DAPI staining-based fluorescence microscopic method
[21] = tested on: Trypanosoma brucei brucei; assay: Antitrypanosomal activity against bloodstream trypomastigote form of Trypanosoma brucei brucei 65.3 assessed as cell debris of dead and lysed parasite at 10 uM after 12 to 24 hrs by DAPI staining-based fluorescence microscopic method; format: functional
MDA-MB-231 [22] = assay: Antiproliferative activity against human MDA-MB-231 cells after 96 hrs by MTT assay; format: functional, cell-based; settings: MDA-MB-231, 96 h
BXPC-3 [23] = assay: Antiproliferative activity against human BxPC3 cells after 96 hrs by MTT assay; format: functional, cell-based; settings: BXPC-3, 96 h
PC-3 [24] = assay: Antiproliferative activity against human PC3 cells after 96 hrs by MTT assay; format: functional, cell-based; settings: PC-3, 96 h
MCF-10A = assay: Antiproliferative activity against human MCF10A cells at 50 uM after 96 hrs by MTT assay; format: cell-based
[25] = Selectivity index, ratio of IC50 for human MCF10A cells to IC50 for human 518A2 cells; format: functional
[26] = Selectivity index, ratio of IC50 for human MCF10A cells to IC50 for human HCT116 cells; format: functional
[27] = Selectivity index, ratio of IC50 for human MCF10A cells to IC50 for vinblastine-resistant human KBV1 cells; format: functional
[28] = Selectivity index, ratio of IC50 for human MCF10A cells to IC50 for human PANC1 cells; format: functional
[29] = Selectivity index, ratio of IC50 for human MCF10A cells to IC50 for human MDA-MB-231 cells; format: functional
[30] = Selectivity index, ratio of IC50 for human MCF10A cells to IC50 for human BxPC3 cells; format: functional
[31] = Selectivity index, ratio of IC50 for human MCF10A cells to IC50 for human PC3 cells; format: functional
[32] = tested on: Trypanosoma brucei brucei; assay: Antitrypanosomal activity against bloodstream trypomastigote form of Trypanosoma brucei brucei 65.3 assessed as deformation of microtubule cytoskeleton at 1 to 10 uM after 3 to 6 hrs by DAPI staining-based fluorescence microscopic method; format: functional
[33] = tested on: Trypanosoma brucei brucei; assay: Antitrypanosomal activity against bloodstream trypomastigote form of Trypanosoma brucei brucei 65.3 assessed as decrease in parasite viability at 1 to 10 uM after 1 hr by DAPI staining-based fluorescence microscopic method; format: functional
Entamoeba histolytica [34] = assay: Antiamoebic activity against Entamoeba histolytica assessed as growth inhibition at 100 ug/ml after 24 hrs by trypan blue dye-based hemocytometer relative to control; format: functional; settings: read-out: GI
Entamoeba histolytica [35] = assay: Antiamoebic activity against Entamoeba histolytica assessed as growth inhibition at 50 ug/ml after 24 hrs by trypan blue dye-based hemocytometer relative to control; format: functional; settings: read-out: GI
Entamoeba histolytica [36] = assay: Antiamoebic activity against Entamoeba histolytica assessed as growth inhibition at 25 ug/ml after 24 hrs by trypan blue dye-based hemocytometer relative to control; format: functional; settings: read-out: GI
Entamoeba histolytica [37] = assay: Antiamoebic activity against Entamoeba histolytica assessed as growth inhibition at 100 ug/ml after 48 hrs by trypan blue dye-based hemocytometer relative to control; format: functional; settings: read-out: GI
Entamoeba histolytica [38] = assay: Antiamoebic activity against Entamoeba histolytica assessed as growth inhibition at 50 ug/ml after 48 hrs by trypan blue dye-based hemocytometer relative to control; format: functional; settings: read-out: GI
Entamoeba histolytica [39] = assay: Antiamoebic activity against Entamoeba histolytica assessed as growth inhibition at 25 ug/ml after 48 hrs by trypan blue dye-based hemocytometer relative to control; format: functional; settings: read-out: GI
Entamoeba histolytica [40] = assay: Antiamoebic activity against Entamoeba histolytica assessed as growth inhibition at 100 ug/ml after 72 hrs by trypan blue dye-based hemocytometer relative to control; format: functional; settings: read-out: GI
Entamoeba histolytica [41] = assay: Antiamoebic activity against Entamoeba histolytica assessed as growth inhibition at 50 ug/ml after 72 hrs by trypan blue dye-based hemocytometer relative to control; format: functional; settings: read-out: GI
Entamoeba histolytica [42] = assay: Antiamoebic activity against Entamoeba histolytica assessed as growth inhibition at 25 ug/ml after 72 hrs by trypan blue dye-based hemocytometer relative to control; format: functional; settings: read-out: GI

Structure (SMILES): O=C1C(O)=C(C(NCc2ccccn2)c2ccc(F)c(F)c2)C(=O)c2ccccc21 (stereo not given)
growth inhibition (GI) (MDA-MB-231 [1]): Active | growth inhibition (GI) (BXPC-3 [2]): Active | growth inhibition (GI) (PC-3 [3]): Active | growth inhibition (GI) (MDA-MB-231 [4]): inactive | growth inhibition (GI) (BXPC-3 [5]): inactive | growth inhibition (GI) (PC-3 [6]): inactive

Structure (SMILES): CCCCCCCCCCCCNC(C1=C(O)C(=O)c2ccccc2C1=O)c1ccc(F)c(F)c1 (stereo not given)
growth inhibition (GI) (MDA-MB-231 [1]): Active | growth inhibition (GI) (BXPC-3 [2]): Active | growth inhibition (GI) (PC-3 [3]): Active | growth inhibition (GI) (MDA-MB-231 [4]): inactive | growth inhibition (GI) (BXPC-3 [5]): inactive | growth inhibition (GI) (PC-3 [6]): inactive

Structure (SMILES): COc1cc(C(NCc2ccccn2)C2=C(O)C(=O)c3ccccc3C2=O)ccc1O (stereo not given)
growth inhibition (GI) (MDA-MB-231 [7]): inactive | growth inhibition (GI) (BXPC-3 [8]): inactive | growth inhibition (GI) (PC-3 [9]): inactive

IC50 (HCT-116): 5.68 µM | IC50 (KB-V1): 1.56 µM | IC50 (PANC-1): 7.72 µM
Structure (SMILES): O=C1C(O)=C(C(NCc2ccc(F)c(F)c2)c2ccccn2)C(=O)c2ccccc21 (stereo not given)
IC50 (518A2 [10]): 3.05 µM

IC50 (HCT-116): 2.41 µM | IC50 (KB-V1): 0.43 µM | IC50 (PANC-1): 3.93 µM | IC50 [16]: 0.35 µM
Structure (SMILES): CCCCCCCCCCCCCCNC(C1=C(O)C(=O)c2ccccc2C1=O)c1ccccn1 (stereo not given)
growth inhibition (GI) (MDA-MB-231 [11]): Active | growth inhibition (GI) (BXPC-3 [12]): Active | growth inhibition (GI) (PC-3 [13]): Active | IC50 (518A2 [10]): 3.03 µM | Activity (518A2 [14]): 50% | Activity (518A2 [15]): 70% | Activity [17]: Active | Activity [18]: Active | Activity (HeLa [19]): Non-Toxic | Activity (HeLa [20]): Non-Toxic | Activity [21]: Active

Structure (SMILES): CCCCCCCCCCCCCCCCNC(C1=C(O)C(=O)c2ccccc2C1=O)c1ccc(F)c(F)c1 (stereo not given)
growth inhibition (GI) (MDA-MB-231 [1]): Active | growth inhibition (GI) (BXPC-3 [2]): Active | growth inhibition (GI) (PC-3 [3]): Active | growth inhibition (GI) (MDA-MB-231 [4]): inactive | growth inhibition (GI) (BXPC-3 [5]): inactive | growth inhibition (GI) (PC-3 [6]): inactive

IC50 (HCT-116): 3.46 µM | IC50 (KB-V1): 0.32 µM | IC50 (PANC-1): 1.79 µM | IC50 [16]: 0.646 µM
Structure (SMILES): CCCCCCCCCCCCNC(C1=C(O)C(=O)c2ccccc2C1=O)c1ccccn1 (stereo not given)
growth inhibition (GI) (MDA-MB-231 [11]): Active | growth inhibition (GI) (BXPC-3 [12]): Active | growth inhibition (GI) (PC-3 [13]): Active | IC50 (518A2 [10]): 2.57 µM | Activity (518A2 [14]): 50% | Activity (518A2 [15]): 70% | Activity [17]: Active | Activity [18]: Active | Activity (HeLa [19]): Non-Toxic | Activity (HeLa [20]): Non-Toxic

IC50 (MDA-MB-231 [22]): 1.1 µM | IC50 (BXPC-3 [23]): 0.82 µM | IC50 (PC-3 [24]): 0.67 µM | IC50 (HCT-116): 2.08 µM | IC50 (KB-V1): 0.83 µM | IC50 (PANC-1): 2.19 µM | IC50 [16]: 0.303 µM
Structure (SMILES): CCCCCCCCCCCCCCCCNC(C1=C(O)C(=O)c2ccccc2C1=O)c1ccccn1 (stereo not given)
growth inhibition (GI) (MCF-10A): Non-Toxic | IC50 (518A2 [10]): 1.41 µM | Ratio IC50 [25]: >35 | Ratio IC50 [26]: >24 | Ratio IC50 [27]: >60 | Ratio IC50 [28]: >22 | Ratio IC50 [29]: >46 | Ratio IC50 [30]: >61 | Ratio IC50 [31]: >75 | Activity (518A2 [14]): 50% | Activity (518A2 [15]): Active | Activity [32]: Active | Activity [33]: inactive | Activity (HeLa [19]): Non-Toxic | Activity (HeLa [20]): Non-Toxic | inhibition of growth at 100 µg/mL (Entamoeba histolytica [34]): 77.8% | inhibition of growth at 50 µg/mL (Entamoeba histolytica [35]): 66.6% | inhibition of growth at 25 µg/mL (Entamoeba histolytica [36]): 60% | inhibition of growth at 100 µg/mL (Entamoeba histolytica [37]): 80.9% | inhibition of growth at 50 µg/mL (Entamoeba histolytica [38]): 82.1% | inhibition of growth at 25 µg/mL (Entamoeba histolytica [39]): 66% | inhibition of growth at 100 µg/mL (Entamoeba histolytica [40]): 82.8% | inhibition of growth at 50 µg/mL (Entamoeba histolytica [41]): 85.3% | inhibition of growth at 25 µg/mL (Entamoeba histolytica [42]): 70.6%
